Test results as given in patent publication US20230146795A1, “ENHANCEMENT OF ANTI-TUMOR ACTIVITY OF SHP2 INHIBITOR PYRIMIDINONE IN COMBINATION WITH NOVEL CANCER MEDICINES IN CANCERS” (TAIHO PHARMACEUTICAL CO., LTD., priority 2020, published 2023).

What was measured:
Type in all cases: cell-based
[1] = test system: NCI-H358; test: Anti-proliferation assay (CellTiter-Glo 2.0), combination index, NCI-H358; details: for Description (combinatory effect by CI): Compound 1:combination drug molar ratio 1:9
Procedure: (§1) Cell lines were obtained from ATCC or Health Science Research Resources Bank.
(§2) Each cell lines were collected by ordinary method, then suspended in indicated medium containing 10% fetal bovine serum in table 3. The number of cells seeded per well was set to 500 cells/20 μL. […] The concentration of each anti-cancer reagents set to 8 concentrations including 0 nM. After adding the medicine to the cells, the cells were further incubated at 37° C. for 3 days under 5% CO2. Cell survival rates were calculated by adding 20 μL of CellTiter-Glo(registered trademark) 2. 0 (Promega) solution to each well, incubating the cells at room temperature for 10 minutes, and then measuring the chemiluminescence intensity of each well using a plate reader (ARVO).
(§3) A combination index (CI) value at each combined concentration of the medicines was determined.

[2] = test system: MKN45; test: Anti-proliferation assay (CellTiter-Glo 2.0), combination index, MKN45
Procedure: as §1, §2, §3

[3] = test system: RT4; test: Anti-proliferation assay (CellTiter-Glo 2.0), combination index, RT4
Procedure: as §1, §2, §3

[4] = Compound 1 41.2 + combination drug 370 nmol/L (1:9)
[5] = Compound 1 123 + combination drug 1110 nmol/L (1:9)
[6] = Compound 1 370 + combination drug 3330 nmol/L (1:9)
[7] = Compound 1 1110 + combination drug 10000 nmol/L (1:9)
[8] = Compound 1 13.7 + combination drug 370 nmol/L (1:27)
[9] = Compound 1 41.2 + combination drug 1110 nmol/L (1:27)
[10] = Compound 1 123 + combination drug 3330 nmol/L (1:27)
[11] = Compound 1 370 + combination drug 10000 nmol/L (1:27)
[12] = Compound 1 1.52 + combination drug 123 nmol/L (1:81)
[13] = Compound 1 13.7 + combination drug 1110 nmol/L (1:81)
[14] = Compound 1 41.2 + combination drug 3330 nmol/L (1:81)
[15] = Compound 1 123 + combination drug 10000 nmol/L (1:81)
[16] = Compound 1 13.7 + combination drug 123 nmol/L (1:9)
[17] = Compound 1:combination drug molar ratio 1:9
[18] = Compound 1 4.57 + combination drug 41.2 nmol/L (1:9)
[19] = Compound 1 123 + combination drug 41.2 nmol/L (1:0.3)
[20] = Compound 1 370 + combination drug 123 nmol/L (1:0.3)
[21] = Compound 1 1110 + combination drug 370 nmol/L (1:0.3)
[22] = Compound 1 3330 + combination drug 1110 nmol/L (1:0.3)
[23] = Compound 1 10000 + combination drug 3330 nmol/L (1:0.3)

Compound: Cc1nc(NC(=O)N2CCC[C@H]2C(N)=O)sc1-c1ccnc(C(C)(C)C(F)(F)F)c1 [Alpelisib]
- CI [1, 4]: 0.451
- Fa [1, 4]: 0.1532
- CI [1, 5]: 0.356
- Fa [1, 5]: 0.4353
- CI [1, 6]: 0.589
- Fa [1, 6]: 0.5959
- CI [1, 7]: 0.844
- Fa [1, 7]: 0.7671
- Description (combinatory effect by CI) [1]: Synergy (0.3-0.7)
- CI [2, 8]: 0.700
- Fa [2, 8]: 0.1253
- CI [2, 9]: 0.426
- Fa [2, 9]: 0.4108
- CI [2, 10]: 0.655
- Fa [2, 10]: 0.5920
- CI [2, 11]: 0.772
- Fa [2, 11]: 0.8141
- Description (combinatory effect by CI) ([2]; Compound 1:combination drug molar ratio 1:27): Synergy (0.3-0.7)
- CI [3, 12]: 0.255
- Fa [3, 12]: 0.0658
- CI [3, 13]: 0.247
- Fa [3, 13]: 0.2690
- CI [3, 14]: 0.318
- Fa [3, 14]: 0.4427
- CI [3, 15]: 0.528
- Fa [3, 15]: 0.5855

Compound: COc1cc2c(Oc3ccc4[nH]c(C)cc4c3F)ccnc2cc1OCC1(N)CC1 [Anlotinib]
- CI [1, 4]: 0.557
- Fa [1, 4]: 0.3217
- CI [1, 5]: 0.416
- Fa [1, 5]: 0.5609
- CI [1, 6]: 0.390
- Fa [1, 6]: 0.7902
- CI [1, 7]: 0.488
- Fa [1, 7]: 0.9031
- Description (combinatory effect by CI) [1]: Synergy (0.3-0.7)
- CI [2, 10]: 0.755
- Fa [2, 10]: 0.7514
- CI [3, 16]: 0.501
- Fa [3, 16]: 0.3362
- CI [3, 4]: 0.444
- Fa [3, 4]: 0.5003
- CI [3, 5]: 0.387
- Fa [3, 5]: 0.7040
- CI [3, 6]: 0.326
- Fa [3, 6]: 0.8765
- CI [3, 7]: 0.316
- Fa [3, 7]: 0.9539
- Description (combinatory effect by CI) [3, 17]: Synergy (0.3-0.7)

Compound: Cn1cnc2c(F)c(Nc3ccc(Br)cc3F)c(C(=O)NOCCO)cc21 [Binimetinib]
- CI [1, 18]: 0.883
- Fa [1, 18]: 0.0312
- CI [1, 16]: 0.223
- Fa [1, 16]: 0.1821
- CI [1, 4]: 0.196
- Fa [1, 4]: 0.3954
- CI [1, 5]: 0.222
- Fa [1, 5]: 0.6241
- CI [1, 6]: 0.349
- Fa [1, 6]: 0.7635
- CI [1, 7]: 0.673
- Fa [1, 7]: 0.8387
- CI [2, 16]: 0.630
- Fa [2, 16]: 0.2390
- CI [2, 4]: 0.387
- Fa [2, 4]: 0.5003
- CI [2, 5]: 0.212
- Fa [2, 5]: 0.7765
- CI [2, 6]: 0.360
- Fa [2, 6]: 0.8408

Compound: O=C(c1ccc(F)c(F)c1Nc1ccc(I)cc1F)N1CC(O)([C@@H]2CCCCN2)C1 [Cobimetinib]
- CI [1, 19]: 0.334
- Fa [1, 19]: 0.3595
- CI [1, 20]: 0.172
- Fa [1, 20]: 0.5769
- CI [1, 21]: 0.165
- Fa [1, 21]: 0.7439
- CI [1, 22]: 0.258
- Fa [1, 22]: 0.8360
- CI [1, 23]: 0.585
- Fa [1, 23]: 0.8699
- CI [2, 16]: 0.806
- Fa [2, 16]: 0.2247
- CI [2, 4]: 0.459
- Fa [2, 4]: 0.6457
- CI [2, 5]: 0.616
- Fa [2, 5]: 0.8262
- Description (combinatory effect by CI) [2, 17]: Synergy (0.3-0.7)
